ChEMBL document CHEMBL1681756, “Synthesis and evaluation of novel pyrimidine-based dual EGFR/Her-2 inhibitors” (Bioorg Med Chem Lett, 2011)

Assays:
[1] = target: Receptor tyrosine-protein kinase erbB-2 (Homo sapiens, UniProt P04626); assay: Inhibition of HER2 by homogeneous time-resolved fluorescence assay
[2] = target: Epidermal growth factor receptor (Homo sapiens, UniProt P00533); assay: Inhibition of EGFR by homogeneous time-resolved fluorescence assay
[3] = tested on: BT-474; assay: Antiproliferative activity against human BT474 cells by methylene blue staining method
[4] = Aqueous solubility of the compound at pH 6.8; format: physicochemical
[5] = Lipophilicity log P of the compound; format: physicochemical; conditions: octanol/water

Chain of Receptor tyrosine-protein kinase erbB-2 (P04626 whole entry): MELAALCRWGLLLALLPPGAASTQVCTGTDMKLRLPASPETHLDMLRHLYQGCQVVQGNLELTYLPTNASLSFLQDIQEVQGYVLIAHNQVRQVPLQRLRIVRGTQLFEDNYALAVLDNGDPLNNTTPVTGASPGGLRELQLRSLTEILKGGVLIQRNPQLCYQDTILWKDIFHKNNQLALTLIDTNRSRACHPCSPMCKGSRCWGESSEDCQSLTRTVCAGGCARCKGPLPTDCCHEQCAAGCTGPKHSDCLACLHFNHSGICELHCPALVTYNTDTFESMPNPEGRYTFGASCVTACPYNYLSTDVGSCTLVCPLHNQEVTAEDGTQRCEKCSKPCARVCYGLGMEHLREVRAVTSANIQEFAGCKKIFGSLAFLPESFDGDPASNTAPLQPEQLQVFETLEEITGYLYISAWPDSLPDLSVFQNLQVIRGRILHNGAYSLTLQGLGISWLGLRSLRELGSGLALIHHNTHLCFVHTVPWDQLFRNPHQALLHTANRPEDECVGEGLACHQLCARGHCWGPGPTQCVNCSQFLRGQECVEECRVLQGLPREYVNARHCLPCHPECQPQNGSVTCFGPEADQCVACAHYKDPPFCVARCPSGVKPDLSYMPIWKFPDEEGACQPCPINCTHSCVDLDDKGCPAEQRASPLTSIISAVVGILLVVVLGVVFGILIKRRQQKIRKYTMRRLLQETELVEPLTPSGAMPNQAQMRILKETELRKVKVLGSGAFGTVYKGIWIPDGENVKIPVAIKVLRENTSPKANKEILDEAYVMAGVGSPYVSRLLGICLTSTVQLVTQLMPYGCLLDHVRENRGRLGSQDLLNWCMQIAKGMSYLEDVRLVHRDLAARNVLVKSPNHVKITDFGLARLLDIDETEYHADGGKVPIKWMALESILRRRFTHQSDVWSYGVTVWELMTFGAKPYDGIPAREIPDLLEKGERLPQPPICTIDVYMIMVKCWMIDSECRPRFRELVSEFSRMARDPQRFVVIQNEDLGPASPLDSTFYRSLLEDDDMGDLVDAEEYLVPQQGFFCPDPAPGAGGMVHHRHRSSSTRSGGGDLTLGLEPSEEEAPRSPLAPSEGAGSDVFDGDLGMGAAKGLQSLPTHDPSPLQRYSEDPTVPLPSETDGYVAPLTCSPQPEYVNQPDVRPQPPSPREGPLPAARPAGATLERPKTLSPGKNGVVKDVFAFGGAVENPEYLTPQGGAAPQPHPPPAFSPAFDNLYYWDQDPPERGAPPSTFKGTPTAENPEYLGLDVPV
Chain of Epidermal growth factor receptor (P00533 whole entry): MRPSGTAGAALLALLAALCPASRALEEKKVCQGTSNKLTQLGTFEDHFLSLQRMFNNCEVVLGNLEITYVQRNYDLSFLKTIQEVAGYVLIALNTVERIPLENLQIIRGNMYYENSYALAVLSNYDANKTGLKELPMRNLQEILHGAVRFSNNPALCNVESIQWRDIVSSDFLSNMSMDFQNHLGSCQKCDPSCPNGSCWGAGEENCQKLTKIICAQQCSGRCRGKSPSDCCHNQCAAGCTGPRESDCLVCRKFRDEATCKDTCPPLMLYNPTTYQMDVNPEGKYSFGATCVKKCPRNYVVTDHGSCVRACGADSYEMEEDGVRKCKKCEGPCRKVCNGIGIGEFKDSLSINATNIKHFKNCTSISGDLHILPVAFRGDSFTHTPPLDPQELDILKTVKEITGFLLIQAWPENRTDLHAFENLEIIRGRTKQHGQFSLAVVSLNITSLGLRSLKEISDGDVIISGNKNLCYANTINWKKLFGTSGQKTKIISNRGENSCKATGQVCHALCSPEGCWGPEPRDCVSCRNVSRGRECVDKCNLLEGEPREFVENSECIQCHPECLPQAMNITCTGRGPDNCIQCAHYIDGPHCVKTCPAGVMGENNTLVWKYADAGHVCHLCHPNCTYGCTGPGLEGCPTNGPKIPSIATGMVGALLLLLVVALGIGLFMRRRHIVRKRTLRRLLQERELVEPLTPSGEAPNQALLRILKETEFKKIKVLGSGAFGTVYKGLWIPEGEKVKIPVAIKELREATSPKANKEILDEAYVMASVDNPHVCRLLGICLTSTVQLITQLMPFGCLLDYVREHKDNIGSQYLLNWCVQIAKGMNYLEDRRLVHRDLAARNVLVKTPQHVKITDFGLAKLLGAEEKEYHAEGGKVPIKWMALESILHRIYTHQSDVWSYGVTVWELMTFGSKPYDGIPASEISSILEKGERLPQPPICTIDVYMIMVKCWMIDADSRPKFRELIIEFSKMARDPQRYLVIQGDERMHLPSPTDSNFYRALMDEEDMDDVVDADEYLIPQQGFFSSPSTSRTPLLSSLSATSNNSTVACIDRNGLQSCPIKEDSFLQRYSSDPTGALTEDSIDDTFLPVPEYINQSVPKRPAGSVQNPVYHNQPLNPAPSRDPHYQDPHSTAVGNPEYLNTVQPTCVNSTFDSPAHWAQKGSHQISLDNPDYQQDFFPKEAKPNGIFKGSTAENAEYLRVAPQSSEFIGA

Row | SMILES | IC50 [1] [nM] | IC50 [2] [nM] | IC50 [3] [nM] | solubility ([4]; aqueous, read-out: solubility) [µM] | logP [5] | solubility ([4]; buffer) [µM]
1 | Cc1cc(Nc2ccc(OCc3cccc(F)c3)c(Cl)c2)ncn1 | 6500 | 1100 |  |  |  | 
2 | Fc1cccc(COc2ccc(Nc3cc(-c4ccccc4)ncn3)cc2Cl)c1 | 6300 | 1200 |  |  |  | 
3 | Fc1cccc(COc2ccc(Nc3cc(-c4cccnc4)ncn3)cc2Cl)c1 | > 100000 | 47000 |  |  |  | 
4 | Fc1cccc(COc2ccc(Nc3cc(-c4ccsc4)ncn3)cc2Cl)c1 | 36000 |  |  |  |  | 
5 | Fc1cccc(COc2ccc(Nc3cc(N4CCCC4)ncn3)cc2Cl)c1 | > 100000 | > 100000 |  |  |  | 
6 | Fc1cccc(COc2ccc(Nc3cc(Oc4ccccc4)ncn3)cc2Cl)c1 | > 100000 | 10000 |  |  |  | 
7 | Cc1ncnc(Nc2ccc(OCc3cccc(F)c3)c(Cl)c2)c1C | 140 | 17 |  |  |  | 
8 | CCc1ncnc(Nc2ccc(OCc3cccc(F)c3)c(Cl)c2)c1C | 2900 | 640 |  |  |  | 
9 | Cc1c(Nc2ccc(OCc3cccc(F)c3)c(Cl)c2)ncnc1-c1ccccc1 | 65000 | 20000 |  |  |  | 
10 | Cc1ncnc(Nc2ccc(OCc3cccc(F)c3)c(Cl)c2)c1/C=N/OCCN1CCOCC1 | 740 | 68 |  |  |  | 
11 | Cc1ncnc(Nc2ccc(OCc3cccc(F)c3)c(Cl)c2)c1/C=N/OCCCN1CCOCC1 | 1800 | 65 |  |  |  | 
12 | Cc1ncnc(Nc2ccc(OCc3cccc(F)c3)c(Cl)c2)c1-c1cccc(CN2CCOCC2)c1 | 3750 | 590 |  |  |  | 
13 | Cc1ncnc(Nc2ccc(OCc3cccc(F)c3)c(Cl)c2)c1C#CCCCN1CCOCC1 | 150 | 34 |  |  |  | 
14 | Cc1ncnc(Nc2ccc(OCc3cccc(F)c3)c(Cl)c2)c1C#Cc1ccc(CN2CCOCC2)cc1 | 440 | 240 | 394 | > 50 | 6.96 | 
15 | C/C(=C\c1c(C)ncnc1Nc1ccc(OCc2cccc(F)c2)c(Cl)c1)C(=O)NCCN1CCOCC1 | 81 | 28 |  |  |  | 
16 | Cc1ncnc(Nc2ccc(OCc3cccc(F)c3)c(Cl)c2)c1/C=C/c1ccc(CN2CCOCC2)cc1 | 190 | 120 | 644 |  | 7.73 | 
17 | Cc1ncnc(Nc2ccc(OCc3cccc(F)c3)c(Cl)c2)c1/C=C(\F)C(=O)NCCN1CCOCC1 | 78 |  |  |  |  | 
18 | Cc1ncnc(Nc2ccc(OCc3cccc(F)c3)c(Cl)c2)c1/C=C/C(=O)NCCN1CCOCC1 | 318 | 114 |  |  |  | 
19 | Cc1ncnc(Nc2ccc(OCc3cccc(F)c3)c(Cl)c2)c1/C=C(\F)C(=O)NCCN1CCCC1 | 19 | 3 | 1130 | > 50 | 5.98 | 
20 | Cc1ncnc(Nc2ccc(OCc3cccc(F)c3)c(Cl)c2)c1/C=C(\F)C(=O)NCCS(C)(=O)=O | 71 | 19 |  |  |  | 
21 | CCN1CCN(C(=O)/C(F)=C/c2c(C)ncnc2Nc2ccc(OCc3cccc(F)c3)c(Cl)c2)CC1 | 102 | 156 |  |  |  | 
22 | Cc1ncnc(Nc2ccc(OCc3cccc(F)c3)c(Cl)c2)c1C#CCCN1CCOCC1 | 74 | 13 |  |  |  | 
23 | Cc1ncnc(Nc2ccc(OCc3cccc(F)c3)c(Cl)c2)c1C#CCN1CCOCC1 | 5380 | 4130 |  |  |  | 
24 | Cc1ncnc(Nc2ccc(OCc3cccc(F)c3)c(Cl)c2)c1C#C/C=N/OCCN1CCOCC1 | 70 | 38 |  |  |  | 
25 | Cc1ncnc(Nc2ccc(OCc3cccc(F)c3)c(Cl)c2)c1C#CCCCN1CCCC1 | 95 |  |  |  |  | 
26 | CCN1CCN(CCCC#Cc2c(C)ncnc2Nc2ccc(OCc3cccc(F)c3)c(Cl)c2)CC1 | 36 | 9 | 1440 | > 50 | 6.23 | 
27 | Cc1ncnc(Nc2ccc(OCc3cccc(F)c3)c(Cl)c2)c1C#CCCNCc1ccccc1 | 810 | 270 |  |  |  | 
28 | Cc1ncnc(Nc2ccc(OCc3cccc(F)c3)c(Cl)c2)c1/C=C/c1ccc(CN2CCOCC2)cc1.Cl |  |  |  | 2 |  | 
29 | Fc1cccc(COc2ccc(Nc3ccncn3)cc2Cl)c1 | 25000 | 920 |  |  |  | 
30 | CS(=O)(=O)CCNCc1ccc(-c2ccc3ncnc(Nc4ccc(OCc5cccc(F)c5)c(Cl)c4)c3c2)o1.Cc1ccc(S(=O)(=O)O)cc1.Cc1ccc(S(=O)(=O)O)cc1.O [LAPATINIB DITOSYLATE] |  |  | 100 |  | 6.67 | 24
